How the values were obtained:
P-TEFb = assay: BiFC assay, YC.P-TEFb coexpressed with YN.CTD in HEK293 cells; assay type: cell-based; conditions: for number of YFP-positive cells: versus normal culture conditions
Text: Sequences encoding amino acids 1-154 (YN) and 155-238 (YC) of YFP were amplified and cloned in mammalian expression plasmids. The YN.CTD chimera was constructed by inserting DNA fragments from a 52X heptapeptide (52 X SEQ ID NO: 4 (SEQ ID NO: 7)) CTD coding plasmid with a linker sequence encoding a nuclear localization signal, SEQ ID NO: 5. The YC.PTEFb chimera was constructed by inserting DNA fragments corresponding to P-TEFb into the YC plasmid, with Cdk9 and CycT1 sequences genetically fused to express as a single chimeric polypeptide, that can form a functional P-TEFb molecule. A polynucleotide coding for the linker of SEQ ID NO: 6 was optionally utilized in the constructs, between P-TEFb or CTD sequences and their associated fluorophores fragments. All proteins contained an anti-c-Myc antibody epitope tag at the N termini, and their expression in cells was confirmed by Western blotting using an anti-c-Myc antibody.
(§1) HeLa or HEK293 cells growing in log phase were transfected with plasmid DNA encoding YN.CTD and YC.P-TEFb fusion proteins by use of a lipofection agent. Incorporation of YC.P-TEFb into the 7SK snRNP was confirmed by immunoprecipitation and Western blot analysis with antibodies to the components of the 7SK snRNP.
The BiFC assay was used to detect interactions between released free P-TEFb and its natural substrate, RNA polymerase II CTD. When YC.P-TEFb was coexpressed with YN.CTD in HEK293 cells under normal culture conditions, very few weakly YFP-positive cells were detected. […] Because the emission peak of YFP (527 nm) is similar to that of GFP (509 nm), the BiFC-positive cells appeared green. […] YC.P-TEFb was employed to monitor P-TEFb activation by BiFC in cells.
A time-dependent increase in BiFC signals was monitored by time-lapse fluorescence microscopic analysis. HEK293 cells expressing YC.P-TEFb and YN.CTD were treated with 5 micromolar SAHA, and fluorescent images were taken every 3 min. BiFC signals were detected by 30 min after the addition of SAHA and reached a peak at a time point between 75 and 90 min. At later times, more intense and punctate nuclear staining reflected the accumulation of active P-TEFb in nuclear speckles. This finding is consistent with previous observations of P-TEFb release by SAHA with a consideration of the time required for maturation of the fluorophore.

7SK snRNP = assay: Immunoprecipitation and Western blot of 7SK snRNP fractions in cells expressing YC.P-TEFb; assay type: cell-based; conditions: HeLa or HEK293 cells, SAHA treatment
Text: as §1

SMILES | time-dependent increase in BiFC signals (P-TEFb release) (P-TEFb; time-lapse fluorescence microscopy) | number of YFP-positive cells (P-TEFb) | amounts of YC.P-TEFb and endogenous CycT1 proteins in 7SK snRNP fractions (7SK snRNP) | levels of free P-TEFb (7SK snRNP) | time at which BiFC signals were detected after addition (P-TEFb; 5 micromolar, time-lapse fluorescence microscopy, images every 3 min) [min]
Nc1ncn([C@@H]2O[C@H](CO)[C@@H](O)[C@H]2O)c(=O)n1 [AzaC] | released P-TEFb | – | – | – | –
CC(=O)NCCCCCCNC(C)=O [HMBA] | – | increased significantly | – | – | –
O=C(CCCCCCC(=O)Nc1ccccc1)NO [SAHA] | – | increased significantly | reduced | increased | ≤ 30
CN1CCc2c(c3ccccc3n2Cc2ccc(C(=O)NO)cc2)C1 [tubastatin A] | – | did not increase | – | – | –
